Laboratory results as given in ChEMBL document CHEMBL3351597, “Synthesis and activity of new triphenylphosphonium derivatives of betulin and betulinic acid against Schistosoma mansoni in vitro and in vivo” (Bioorg Med Chem, 2014).
The source made the active and inactive calls. The calls are words filed in the database; no cut-off is given here.

Assays:
Schistosoma mansoni [1] = test: Antischistosomal activity against newly transformed Schistosoma mansoni assessed as decrease in viability after 72 hrs; type: functional, organism-based
Schistosoma mansoni [2] = test: Antischistosomal activity against newly transformed Schistosoma mansoni assessed as death at 8.33 microg/ml after 72 hrs; type: functional, organism-based
Schistosoma mansoni [3] = test: Antischistosomal activity against newly transformed Schistosoma mansoni assessed as death at 2.78 microg/ml after 72 hrs; type: functional, organism-based
L6 = test: Cytotoxicity against rat L6 cells after 24 hrs by Resazurin dye; type: cell-based; settings: L6, 24 h
Schistosoma mansoni [4] = test: Antischistosomal activity against Schistosoma mansoni infected in NMRI mouse assessed as mouse cured at 400 mg/kg, po treated after 49 days of infection measured after 21 days post treatment; type: functional, organism-based; set-up: dose 400 mg/kg
Schistosoma mansoni [5] = test: Antischistosomal activity against Schistosoma mansoni infected in NMRI mouse assessed as reduction of total worm burden at 400 mg/kg, po treated after 49 days of infection measured after 21 days post treatment; type: functional
Schistosoma mansoni [6] = test: Antischistosomal activity against Schistosoma mansoni infected in NMRI mouse assessed as reduction of female worm burden at 400 mg/kg, po treated after 49 days of infection measured after 21 days post treatment; type: functional

SMILES | Activity (Schistosoma mansoni [1]) | IC50 (Schistosoma mansoni [1]) | Activity (Schistosoma mansoni [2]) | also measured
COC(=O)[C@]12CC[C@@H](C(C)C)[C@@H]1[C@H]1CC[C@@H]3[C@@]4(C)C[C@H](CCC[P+](c5ccccc5)(c5ccccc5)c5ccccc5)[C@H](O)C(C)(C)[C@@H]4CC[C@@]3(C)[C@]1(C)CC2 | Active |  |  | 
COC(=O)[C@]12CC[C@@H](C(C)C)[C@@H]1[C@H]1CC[C@@H]3[C@@]4(C)C[C@H](CCC[P+](c5ccccc5)(c5ccccc5)c5ccccc5)[C@@H](OC(C)=O)C(C)(C)[C@@H]4CC[C@@]3(C)[C@]1(C)CC2.[Br-] |  | 1.37 µg/mL | Active | 
CC(=O)O[C@H]1[C@@H](CCC[P+](c2ccccc2)(c2ccccc2)c2ccccc2)C[C@]2(C)[C@H]3CC[C@@H]4[C@H]5[C@H](C(C)C)CC[C@]5(C(=O)OCc5ccccc5)CC[C@@]4(C)[C@]3(C)CC[C@H]2C1(C)C | Active |  |  | 
C=C(C[P+](c1ccccc1)(c1ccccc1)c1ccccc1)[C@@H]1CC[C@]2(COC(C)=O)CC[C@]3(C)[C@H](CC[C@@H]4[C@@]5(C)CC[C@H](OC(C)=O)C(C)(C)[C@@H]5CC[C@]43C)[C@@H]12.[Br-] |  | 0.64 µg/mL | Active | Activity (Schistosoma mansoni [3]): Active; IC50 (L6): 0.64 µg/mL; Activity (Schistosoma mansoni [4]): inactive; inhibition in vivo at 400 mg/kg (Schistosoma mansoni [5]): 22.2%; inhibition in vivo at 400 mg/kg (Schistosoma mansoni [6]): 20.3%
COC(=O)[C@]12CC[C@@H](C(C)C)[C@@H]1[C@H]1CC[C@@H]3[C@@]4(C)C[C@H](CCC[P+](c5ccccc5)(c5ccccc5)c5ccccc5)[C@H](OC(C)=O)C(C)(C)[C@@H]4CC[C@@]3(C)[C@]1(C)CC2.[Br-] |  | 1.46 µg/mL | Active | 
CC(=O)O[C@H]1[C@@H](CCC[P+](c2ccccc2)(c2ccccc2)c2ccccc2)C[C@]2(C)[C@H]3CC[C@@H]4[C@H]5[C@H](C(C)C)CC[C@]5(C(=O)O)CC[C@@]4(C)[C@]3(C)CC[C@H]2C1(C)C | Active |  |  | 
COC(=O)[C@]12CC[C@@H](C(C)C)[C@@H]1[C@H]1CC[C@@H]3[C@@]4(C)C[C@H](CCC[P+](c5ccccc5)(c5ccccc5)c5ccccc5)[C@@H](O)C(C)(C)[C@@H]4CC[C@@]3(C)[C@]1(C)CC2 | Active |  |  | 
COC(=O)[C@]12CC[C@@H](C(C)CI)[C@@H]1[C@H]1CC[C@@H]3[C@@]4(C)C[C@H](CCC[P+](c5ccccc5)(c5ccccc5)c5ccccc5)[C@H](OC(C)=O)C(C)(C)[C@@H]4CC[C@@]3(C)[C@]1(C)CC2.[I-] (stereo partly drawn) |  | 6.35 µg/mL |  | IC50 (L6): 1.65 µg/mL
C=C(C[P+](c1ccccc1)(c1ccccc1)c1ccccc1)[C@@H]1CC[C@]2(C(=O)OC)CC[C@]3(C)[C@H](CC[C@@H]4[C@@]5(C)CC[C@H](OC(C)=O)C(C)(C)[C@@H]5CC[C@]43C)[C@@H]12.[Br-] |  | 0.76 µg/mL | Active | Activity (Schistosoma mansoni [3]): Active; Activity (Schistosoma mansoni [4]): inactive; inhibition in vivo at 400 mg/kg (Schistosoma mansoni [5]): 21.9%; inhibition in vivo at 400 mg/kg (Schistosoma mansoni [6]): 24.8%
